Reference: patent publication US7612107B2, “Treatment and inhibition of disease conditions using flexible heteroarotinoids” (The Board of Regents of the University of Oklahoma, priority 2005, dated 2009)

Assays:
OVCAR-3 xenograft tumors = experiment: OVCAR-3 xenograft tumor growth model; format: in vivo, mouse; conditions: 10 mg/kg/day by gavage, 5 days per week, 4 weeks
Protocol: Groups of 5 mice bearing OVCAR-3 xenografted tumors were gavaged daily with the indicated drugs in sesame oil (▪ closed square) or with sesame oil alone (∘ open circle). Tumor volumes were measured in 3 dimensions with calipers weekly. Each data point represents the average and standard error of the tumor volumes on the indicated treatment day relative to the tumor volume on day zero. Nu/nu mice were injected subcutaneously with one million OVCAR-3 cells and arbitrarily divided into five groups of six mice each. After three weeks of tumor growth, the animals were gavaged with sesame oil, 10 mg/kg/day 4-HPR, or the indicated Het five times per week for four weeks and the tumors were measured once per week. The tumor sizes were averaged and divided by the average size for each group on the day that treatment was initiated (day 0).
The OVCAR-3 cultures were maintained in RPMI media supplemented with 10% fetal bovine serum. All animal experimentation described in this manuscript was conducted in accord with accepted standards of humane animal care. Twenty-five female NU/NU CD-1 female mice (Charles Rivers Laboratories) were housed in a laminar flow room under sterile conditions at 83-85° F. The mice were quarantined for one week prior to the beginning of the study and were allowed access to autoclaved food (Purina 5001 mouse/rat sterilizable diet, St. Louis, Mo.) and water ad libitum. OVCAR-3 cells in log phase growth were harvested by trypsinization, resuspended in RPMI culture medium, and centrifuged at 3,000 rpm for 10 min. The pellets were resuspended in RPMI culture medium at a concentration of 7×10^6 cells/ml before implantation into mice. Animals were injected with 3.5×10^6 cells into the right scapular region with a 24-gauge needle/1 cc tuberculin syringe. Twenty-four hours after tumor implantation, animals were randomized into 5 groups of 5 animals each.
The Hets SHet50, SHetA2 and SHetA4 were synthesized and their receptor specificity determined as previously described (17,19). The 4-HPR compound was a gift from R.W. Johnson Pharmaceutical Research Institute, Raritan, N.J. All retinoids were dissolved in super refined sesame oil (Croda, Inc., Parsippany, N.J.) and stored at −80° C. Since the retinoids are light sensitive, all manipulations involving retinoids were performed under subdued lighting. […] Tumors were measured with calipers weekly, and tumor volumes were calculated using the formula: volume=length×width×height. Tumor growth was determined by the dividing the volume of the tumor at each weekly measurement by the volume on the first day of treatment. Animal weights and clinical signs of overall health status and cutaneous toxicities were recorded weekly.

[1] = tested on: organotypic cultures of normal endometrial cells; experiment: Chemoprevention in DMBA-treated endometrial organotypic cultures; format: cell-based; conditions: histology and karyometric analysis
Description: Untreated: The specimen is cellular with both surface and mid-gel cells presence in abundance. Two cell types are clearly present. One appears to be stromal. The nuclei are thin and spindle shaped and the cytoplasm is similar. When cut in cross-section the nuclei are very small and round and hyperchromatic. The other cells have large, oval to almost boxcar nuclei with small nucleoli and abundant cytoplasm. Numerous mitosis are present. The epithelial cells are almost syncitial in nature and appear to cling to one another. With DMBA Carcinogen: The specimen is cellular. The cells present have lost their cytoplasm. There is more pleomorphism of the cells and many are very hyperchromatic. Mitoses are very numerous-approximately 2× the number in untreated. Cells no longer are together but are distinct one from another. Stromal cells intermix with the epithelial cells. […]
FIG. 19 illustrates a typical experiment in which organotypic cultures of normal endometrial cells were treated with a carcinogen called DMBA and developed the cancer phenotype. […] All segmented nuclei were then subjected to texture feature extraction using TICAS software, resulting in 95 texture features for each nucleus that were subjected to quantitative analysis.

dorsal skin = experiment: Topical irritancy in Skh hairless mice; format: in vivo; conditions: topical, dorsal skin, 4 days, 2-log dose range
Protocol: Female Skh hairless mice, 6-8 weeks old, were treated topically on the dorsal skin for 4 days over a 2-log concentration dose range with various compounds. Retinoic acid receptor-Hets were evaluated in A, while retinoic acid receptor-independent Flex-Hets were evaluated in B. Daily flaking and abrasion scores were combined to calculate a single cutaneous toxicity score for each mouse. Each treatment group consisted of 4 mice, and group averages were used to plot cutaneous toxicity against doses of the compounds.
Topical irritancy was evaluated according to published procedures (29). Briefly, female Skh hairless mice, 6-8 weeks old, were treated topically on the dorsal skin for 4 days over a 2-log concentration dose range with various compounds. Daily flaking and abrasion scores were combined to calculate a single cutaneous toxicity score for each mouse. Each treatment group consists of 4 mice, and group averages are used to plot cutaneous toxicity against dose of the retinoid compound.

[2] = tested on: SW962 vulvar carcinoma cultures; experiment: Annexin-V-Fluos apoptosis assay; format: cell-based; conditions: cancer cell lines
Protocol: SW962 vulvar carcinoma cultures were treated with 10 μM of the indicated retinoid or the same volume of solvent. At the specified times, the cultures were labeled with Annexin-V-Fluos and propidium iodide (PI), and the number of apoptotic cells was quantified using dual-laser flow cytometric analysis.
The TUNEL assay was used to evaluate apoptosis in fixed, paraffin embedded, cut sections of the treated and control cultures (FIG. 17). […] These two cellular outcomes appeared to be mutually exclusive.

Q: Which “Growth of xenograft tumors versus sesame oil control” value (OVCAR-3 xenograft tumors) does the source give for CC1(C)CC(C)(C)c2cc(NC(=S)Nc3ccc([N+](=O)[O-])cc3)ccc2S1 [SHetA2] here?
A: significantly inhibited the growth

Q: What about the “Development of the cancer phenotype after DMBA carcinogen” value [1] of the same compound?
A: prevented the development of this phenotype

Q: What about the “Topical irritancy (cutaneous toxicity score)” value (dorsal skin) of the same compound?
A: did not induce topical irritancy

Q: And the “Induction of apoptosis (Annexin-V-Fluos)” value [2]?
A: same concentration range as 4-HPR
